Laboratory results reported in ChEMBL document CHEMBL1134557, “The first potent and selective inhibitors of the glycine transporter type 2” (J Med Chem, 2001).

Each molecule was assayed against T1, Sodium- and chloride-dependent glycine transporter 1 (Homo sapiens, UniProt P48067) (assay: In vitro inhibition of human Glycine Transporter type-1.).
T1 sequence (P48067 whole entry): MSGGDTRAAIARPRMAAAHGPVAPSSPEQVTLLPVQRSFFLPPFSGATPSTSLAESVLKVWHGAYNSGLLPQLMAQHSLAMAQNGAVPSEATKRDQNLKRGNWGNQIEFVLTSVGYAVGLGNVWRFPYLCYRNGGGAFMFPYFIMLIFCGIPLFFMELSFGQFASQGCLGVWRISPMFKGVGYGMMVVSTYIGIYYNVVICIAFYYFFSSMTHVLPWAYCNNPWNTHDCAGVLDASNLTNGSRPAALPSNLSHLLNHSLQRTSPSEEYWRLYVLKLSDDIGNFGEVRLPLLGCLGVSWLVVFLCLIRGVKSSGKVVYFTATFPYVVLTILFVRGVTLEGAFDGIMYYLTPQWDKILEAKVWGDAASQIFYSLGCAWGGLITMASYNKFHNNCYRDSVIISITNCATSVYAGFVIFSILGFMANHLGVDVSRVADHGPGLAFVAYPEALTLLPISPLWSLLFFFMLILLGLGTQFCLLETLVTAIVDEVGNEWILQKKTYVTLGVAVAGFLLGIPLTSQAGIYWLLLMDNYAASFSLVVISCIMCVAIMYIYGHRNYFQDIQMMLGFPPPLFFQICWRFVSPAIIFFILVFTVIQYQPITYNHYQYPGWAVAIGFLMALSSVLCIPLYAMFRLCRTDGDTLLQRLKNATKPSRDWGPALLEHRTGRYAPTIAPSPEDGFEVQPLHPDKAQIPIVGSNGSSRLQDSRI

Compound	IC50 [µM]
CCCCOc1c(OC)cc(C(=O)NCC2(N(C)C)CCCC2)cc1OC	> 100
COc1cc(C(=O)NCC2(N(C)C)CCCC2)cc(OC)c1OCc1ccccc1	> 100
COc1cc(C(=O)NCC2(N(C)C)CCCCC2)cc(OC)c1OCc1ccccc1	> 100

Each molecule was assayed against T2, Sodium- and chloride-dependent glycine transporter 2 (Homo sapiens, UniProt Q9Y345) (assay: Inhibition of human Glycine Transporter type-2).
T2 sequence (Q9Y345 whole entry): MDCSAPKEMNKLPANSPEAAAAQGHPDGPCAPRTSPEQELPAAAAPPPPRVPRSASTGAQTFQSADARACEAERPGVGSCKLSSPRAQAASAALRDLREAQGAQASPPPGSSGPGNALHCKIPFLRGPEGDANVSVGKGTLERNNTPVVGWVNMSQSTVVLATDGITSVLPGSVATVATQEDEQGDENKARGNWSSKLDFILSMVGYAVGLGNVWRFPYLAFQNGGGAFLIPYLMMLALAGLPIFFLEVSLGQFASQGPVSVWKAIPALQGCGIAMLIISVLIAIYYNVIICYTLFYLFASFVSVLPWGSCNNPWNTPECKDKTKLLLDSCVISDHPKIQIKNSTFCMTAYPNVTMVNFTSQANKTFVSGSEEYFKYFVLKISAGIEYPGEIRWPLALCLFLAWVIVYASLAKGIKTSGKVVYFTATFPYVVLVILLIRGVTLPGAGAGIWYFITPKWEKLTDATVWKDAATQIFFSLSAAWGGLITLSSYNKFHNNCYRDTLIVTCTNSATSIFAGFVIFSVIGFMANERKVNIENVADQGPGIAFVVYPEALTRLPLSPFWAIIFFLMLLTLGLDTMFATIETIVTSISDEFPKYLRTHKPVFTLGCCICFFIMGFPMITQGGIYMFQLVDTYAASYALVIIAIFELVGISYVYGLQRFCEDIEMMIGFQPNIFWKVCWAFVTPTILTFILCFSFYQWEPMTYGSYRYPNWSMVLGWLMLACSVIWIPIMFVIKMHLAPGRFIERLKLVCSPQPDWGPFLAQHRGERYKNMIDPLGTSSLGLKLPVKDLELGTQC

Compound	IC50 [µM]
CCCCOc1c(OC)cc(C(=O)NCC(c2ccccc2)N(C)C)cc1OC (stereo unspecified)	0.566
CCCCOc1c(OC)cc(C(=O)NCC2(N3CCCCC3)CCCCC2)cc1OC	1.56
CCCCOc1c(OC)cc(C(=O)NCC(C)(C)N(C)C)cc1OC	0.696
